According to patent US8895585B2, “Nicotinamide derivative or salt thereof” (FUJIFILM Corporation, priority 2010, dated 2014):

Key:
THP-1 cells = test: TNFα generation assay; assay type: cell-based, human; details: Homo sapiens, THP-1, THP-1 cells; Table 22; read-out: IC50 in TNFα generation assay
Outline: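 THP-1 cells differentiated to macrophage-like cells with 10 ng/ml IFN-γ for 2 days, preincubated with compound 30 min at room temperature, then cultured 7 h on plates coated with human IgG (10 μg/ml). Secreted TNFα measured by ELISA or AlphaLISA.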

[1] = target: T1, glutathione S-transferase (GST)-fused full-length human Syk protein (Homo sapiens, UniProt P43405); test: Syk enzyme assay; assay type: biochemical; details: Syk enzyme assay, Test Example 1; read-out: IC50 of Syk-inhibitory activity
T1 construct: (GST)-fused full-length human Syk protein; GST (glutathione S-transferase); purchased Carna Biosciences
Outline: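 GST-tagged full-length human Syk (baculovirus) preincubated with compound 15 min at room temperature (pH 7.0, 10 mM MgCl2), then reacted 40 min with 0.4 μM biotinylated peptide substrate and 27 μM ATP (final). Phosphorylation read by HTRF (615/665 nm) after EDTA stop; IC50 reported.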

SMILES | IC50 (THP-1 cells) [nM] | IC50 [1] [nM]
C[C@H](N)[C@@H](C)Nc1nc(Nc2ccc3ncccc3c2)c(C(N)=O)cc1F (racemic) [Example 39-1, 6-(((2R,3S)-3-aminobutan-2-yl)amino)-5-fluoro-2-((quinolin-6-yl)amino)nicotinamide 6-(((2S,3R)-3-aminobutan-2-yl)amino)-5-fluoro-2-((quinolin-6-yl)amino)nicotinamide] | < 65 | < 10
NC(=O)c1cc(F)c(N[C@@H]2CCCC[C@@H]2N)nc1Nc1cncc(N2CCCC2)c1 (relative stereo) [Example 004-049] | 130 to 200 | < 10
NC(=O)c1cc(F)c(N[C@@H]2CCCC[C@@H]2N)nc1Nc1cncc(N2CCCCC2)c1 (relative stereo) [Example 004-050] | 130 to 200 | 10 to 50
NC(=O)c1cc(F)c(N[C@@H]2CCCC[C@@H]2N)nc1Nc1cncc(N2CCOCC2)c1 (relative stereo) [Example 004-051] | 130 to 200 | < 10
NC(=O)c1cc(F)c(N[C@@H]2CCCC[C@@H]2N)nc1Nc1cncc(-c2ccc[nH]2)c1 (relative stereo) [Example 004-053] | 65 to 130 | < 10
NC(=O)c1cc(F)c(N[C@@H]2CCCC[C@@H]2N)nc1Nc1cncc(-c2cccs2)c1 (relative stereo) [Example 004-054] | 65 to 130 | < 10
NC(=O)c1cc(F)c(N[C@@H]2CCCC[C@@H]2N)nc1Nc1cncc(C2CC2)c1 (relative stereo) [Example 004-055] | 65 to 130 | < 10
NC(=O)c1cc(F)c(N[C@@H]2CCCC[C@@H]2N)nc1Nc1cncc(-c2ccc3c(c2)OCCO3)c1 (relative stereo) [Example 004-056] | 130 to 200 | < 10
NC(=O)c1cc(F)c(N[C@@H]2CCCC[C@@H]2N)nc1Nc1cncc(-c2ccco2)c1 (relative stereo) [Example 004-058] | 65 to 130 | < 10
NC(=O)c1cc(F)c(N[C@@H]2CCCC[C@@H]2N)nc1Nc1cnc2c(N)cccc2c1 (relative stereo) [Example 004-059] | < 65 | < 10
NC(=O)c1cc(F)c(N[C@@H]2CCCC[C@@H]2N)nc1Nc1cnc2[nH]ccc2c1 (relative stereo) [Example 004-061] | < 65 | < 10
NC(=O)c1cc(F)c(N[C@@H]2CCCC[C@@H]2N)nc1Nc1cncc2[nH]ccc12 (relative stereo) [Example 004-062] | < 65 | < 10
NC(=O)Nc1cccc2cc(Nc3nc(N[C@@H]4CCCC[C@@H]4N)c(F)cc3C(N)=O)cnc12 (relative stereo) [Example 004-064] | < 65 | 100 to 1000
COc1cc(Nc2nc(N[C@@H]3CCCC[C@@H]3N)c(F)cc2C(N)=O)c2cc[nH]c2n1 (relative stereo) [Example 004-065, 6-(cis-2-aminocyclohexylamino)-5-fluoro-2-((6-methoxy-1H-pyrrolo[2,3-b]pyridin-4-yl)-amino)nicotinamide] | 65 to 130 | < 10
NC(=O)c1cc(F)c(N[C@@H]2CCCC[C@@H]2N)nc1Nc1cc(-n2ccnn2)nc2[nH]ccc12 (relative stereo) [Example 004-068, 2-((6-(1H-1,2,3-triazol-1-yl)-1H-pyrrolo[2,3-b]pyridin-4-yl)amino)-6-(cis-2-aminocyclohexylamino)-5-fluoronicotinamide] | 65 to 130 | < 10
NC(=O)c1cc(F)c(N[C@@H]2CCCC[C@@H]2N)nc1Nc1cc(-n2cncn2)nc2[nH]ccc12 (relative stereo) [Example 004-069, 2-((6-(1H-1,2,4-triazol-1-yl)-1H-pyrrolo[2,3-b]pyridin-4-yl)amino)-6-(cis-2-aminocyclohexylamino)-5-fluoronicotinamide] | 65 to 130 | < 10
Cc1cc2cc(Nc3nc(N[C@@H]4CCCC[C@@H]4N)c(F)cc3C(N)=O)ccc2[nH]1 (relative stereo) [Example 004-071, 6-(cis-2-aminocyclohexylamino)-5-fluoro-2-((2-methyl-1H-indol-5-yl)amino)nicotinamide] | 130 to 200 | < 10
Cn1cc(-c2cncc(Nc3nc(N[C@@H]4CCCC[C@@H]4N)c(F)cc3C(N)=O)c2)cn1 (relative stereo) [Example 004-072, 6-(cis-2-aminocyclohexylamino)-5-fluoro-2-((5-(1-methyl-1H-pyrazol-4-yl)pyridin-3-yl)-amino)nicotinamide] | 130 to 200 | < 10
NC(=O)c1cc(F)c(N[C@@H]2CCCC[C@@H]2N)nc1Nc1cncc(-c2cncs2)c1 (relative stereo) [Example 004-074, 6-(cis-2-aminocyclohexylamino)-5-fluoro-2-((5-(thiazol-5-yl)pyridin-3-yl)amino)-nicotinamide] | 65 to 130 | < 10

Continued, values first:

IC50 (THP-1 cells) [nM] | IC50 [1] [nM] | SMILES
130 to 200 | < 10 | C[C@H](N)[C@@H](C)Nc1nc(Nc2ccc3cccnc3c2)c(C(N)=O)cc1F (racemic) [Example 006-182, 6-(((2R,3S)-3-aminobutan-2-yl)amino)-5-fluoro-2-((quinolin-7-yl)amino)nicotinamide 6-(((2S,3R)-3-aminobutan-2-yl)amino)-5-fluoro-2-((quinolin-7-yl)amino)nicotinamide]
65 to 130 | < 10 | CCn1ncc2cc(Nc3nc(N[C@H](C)[C@H](C)N)c(F)cc3C(N)=O)ccc21 (racemic) [Example 006-184, 6-(((2R,3S)-3-aminobutan-2-yl)amino)-2-((1-ethyl-1H-indazol-5-yl)amino)-5-fluoronicotinamide 6-(((2S,3R)-3-aminobutan-2-yl)amino)-2-((1-ethyl-1H-indazol-5-yl)amino)-5-fluoronicotinamide]
65 to 130 | 10 to 50 | Cc1nc2ccc(Nc3nc(N[C@H](C)[C@H](C)N)c(F)cc3C(N)=O)cc2nc1C (racemic) [Example 006-185, 6-(((2R,3S)-3-aminobutan-2-yl)amino)-2-((2,3-dimethylquinoxalin-6-yl)amino)-5-fluoronicotinamide 6-(((2S,3R)-3-aminobutan-2-yl)amino)-2-((2,3-dimethylquinoxalin-6-yl)amino)-5-fluoronicotinamide]
130 to 200 | < 10 | CCCOc1cc(Nc2nc(N[C@H](C)[C@H](C)N)c(F)cc2C(N)=O)ccn1 (racemic) [Example 006-187, 6-(((2R,3S)-3-aminobutan-2-yl)amino)-5-fluoro-2-((2-propoxypyridin-4-yl)amino)nicotinamide 6-(((2S,3R)-3-aminobutan-2-yl)amino)-5-fluoro-2-((2-propoxypyridin-4-yl)amino)nicotinamide]
65 to 130 | < 10 | C[C@H](N)[C@@H](C)Nc1nc(Nc2ccc3scnc3c2)c(C(N)=O)cc1F (racemic) [Example 006-188, 6-(((2R,3S)-3-aminobutan-2-yl)amino)-2-(benzo[d]thiazol-5-ylamino)-5-fluoronicotinamide 6-(((2S,3R)-3-aminobutan-2-yl)amino)-2-(benzo[d]thiazol-5-ylamino)-5-fluoronicotinamide]
65 to 130 | 10 to 50 | C[C@H](N)[C@@H](C)Nc1nc(Nc2cncc(-n3cccn3)c2)c(C(N)=O)cc1F (racemic) [Example 006-192, 2-((5-(1H-pyrazol-1-yl)pyridin-3-yl)amino)-6-(((2R,3S)-3-aminobutan-2-yl)amino)-5-fluoronicotinamide 2-((5-(1H-pyrazol-1-yl)pyridin-3-yl)amino)-6-(((2S,3R)-3-aminobutan-2-yl)amino)-5-fluoronicotinamide]
< 65 | < 10 | C[C@H](N)[C@@H](C)Nc1nc(Nc2cncc(C3CC3)c2)c(C(N)=O)cc1F (racemic) [Example 006-193, 6-(((2R,3S)-3-aminobutan-2-yl)amino)-2-((5-cyclopropylpyridin-3-yl)amino)-5-fluoronicotinamide 6-(((2S,3R)-3-aminobutan-2-yl)amino)-2-((5-cyclopropylpyridin-3-yl)amino)-5-fluoronicotinamide]
< 65 | < 10 | C[C@H](N)[C@@H](C)Nc1nc(Nc2cncc(-c3ccccc3)c2)c(C(N)=O)cc1F (racemic) [Example 006-195, 6-(((2R,3S)-3-aminobutan-2-yl)amino)-5-fluoro-2-((5-phenylpyridin-3-yl)amino)nicotinamide 6-(((2S,3R)-3-aminobutan-2-yl)amino)-5-fluoro-2-((5-phenylpyridin-3-yl)amino)-nicotinamide]
65 to 130 | 10 to 50 | Cc1cnc2cc(Nc3nc(N[C@H](C)[C@H](C)N)c(F)cc3C(N)=O)ccc2n1 (racemic) [Example 006-196, 6-(((2R,3S)-3-aminobutan-2-yl)amino)-5-fluoro-2-((2-methylquinoxalin-6-yl)amino)nicotinamide 6-(((2S,3R)-3-aminobutan-2-yl)amino)-5-fluoro-2-((2-methylquinoxalin-6-yl)amino)nicotinamide]
130 to 200 | < 10 | CCOc1cc(Nc2nc(N[C@H](C)[C@H](C)N)c(F)cc2C(N)=O)ccn1 (racemic) [Example 006-213, 6-(((2R,3S)-3-aminobutan-2-yl)amino)-2-((2-ethoxypyridin-4-yl)amino)-5-fluoronicotinamide 6-(((2S,3R)-3-aminobutan-2-yl)amino)-2-((2-ethoxypyridin-4-yl)amino)-5-fluoronicotinamide]
